According to ChEMBL document CHEMBL1201862, “PubChem BioAssay data set” (2004):
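In this assay, cells in 96-well plates receive the compound at five concentrations for 48 hours. Endpoints are linearly interpolated between the surrounding concentrations. GI50: concentration for 50% inhibition of growth.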 The source made the active and inactive calls. Rule as the data show it: active = GI50 up to about 1.1 µM and inactive = higher.

Assays:
Assay in all cases: NCI anticancer screen, dose series, 48 h
[1] = tested on: 786-0
[2] = tested on: A549
[3] = tested on: ACHN
[4] = tested on: CCRF-CEM
[5] = tested on: COLO 205
[6] = tested on: DLD-1
[7] = tested on: DMS-273
[8] = tested on: EKVX
[9] = tested on: HCC 2998
[10] = tested on: HCT-116
[11] = tested on: HCT-15
[12] = tested on: HL-60
[13] = tested on: HOP-62
[14] = tested on: HOP-92
[15] = tested on: HT-29
[16] = tested on: IGROV-1
[17] = tested on: K562
[18] = tested on: KM-20L2
[19] = tested on: KM12
[20] = tested on: LOX IMVI
[21] = tested on: LXFL 529
[22] = tested on: M14
[23] = tested on: M19-MEL
[24] = tested on: MOLT-4
[25] = tested on: Malme-3M
[26] = tested on: NCI-H226
[27] = tested on: NCI-H23
[28] = tested on: NCI-H460
[29] = tested on: NCI-H522
[30] = tested on: OVCAR-3
[31] = tested on: OVCAR-4
[32] = tested on: OVCAR-8
[33] = tested on: RXF 393
[34] = tested on: SF-268
[35] = tested on: SF-295
[36] = tested on: SF-539
[37] = tested on: SK-MEL-28
[38] = tested on: SK-MEL-2
[39] = tested on: SK-MEL-5
[40] = tested on: SK-OV-3
[41] = tested on: SN12C
[42] = tested on: SNB-19
[43] = tested on: SNB-75
[44] = tested on: SNB-78
[45] = tested on: SR
[46] = tested on: SW-620
[47] = tested on: TK-10
[48] = tested on: U-251
[49] = tested on: UACC-257
[50] = tested on: UACC-62
[51] = tested on: UO-31
[52] = tested on: XF498

`CC(=O)NC1=C(NCCC(C)C)C(=O)c2ccccc2C1=O` was tested, and the GI50 [1] was > 50 µM (inactive), the GI50 [2] was > 50 µM (inactive) and the GI50 [3] was 0.0301 µM (active). For the same compound, the GI50 [4] was > 50 µM (inactive), the GI50 [5] was > 50 µM (inactive) and the GI50 [6] was > 50 µM (inactive). The GI50 [7] was > 50 µM (inactive), the GI50 [8] was > 50 µM (inactive) and the GI50 [9] was > 50 µM (inactive). The GI50 [10] was > 50 µM (inactive), the GI50 [11] was > 50 µM and the GI50 [12] was > 50 µM (inactive). For the same compound, the GI50 [13] was > 50 µM (inactive), the GI50 [14] was > 50 µM (inactive) and the GI50 [15] was > 50 µM (inactive). The GI50 [16] was > 50 µM (inactive), the GI50 [17] was > 50 µM (inactive) and the GI50 [18] was > 50 µM (inactive). The GI50 [19] was > 50 µM (inactive), the GI50 [20] was > 50 µM (inactive) and the GI50 [21] was > 50 µM (inactive). The GI50 [22] was > 50 µM (inactive), the GI50 [23] was > 50 µM (inactive) and the GI50 [24] was > 50 µM (inactive). For the same compound, the GI50 [25] was 45.9 µM (inactive), the GI50 [26] was > 50 µM (inactive) and the GI50 [27] was > 50 µM (inactive). For the same compound, the GI50 [28] was > 50 µM (inactive), the GI50 [29] was > 50 µM (inactive) and the GI50 [30] was > 50 µM (inactive). For the same compound, the GI50 [31] was > 50 µM (inactive), the GI50 [32] was > 50 µM (inactive) and the GI50 [33] was > 50 µM (inactive). For the same compound, the GI50 [34] was > 50 µM (inactive), the GI50 [35] was > 50 µM (inactive) and the GI50 [36] was > 50 µM (inactive). The GI50 [37] was > 50 µM (inactive), the GI50 [38] was > 50 µM (inactive) and the GI50 [39] was > 50 µM (inactive). For the same compound, the GI50 [40] was > 50 µM (inactive), the GI50 [41] was > 50 µM (inactive) and the GI50 [42] was > 50 µM (inactive). The GI50 [43] was > 50 µM (inactive), the GI50 [44] was > 50 µM (inactive) and the GI50 [45] was > 50 µM (inactive). For the same compound, the GI50 [46] was > 50 µM (inactive), the GI50 [47] was > 50 µM (inactive) and the GI50 [48] was > 50 µM (inactive). The GI50 [49] was > 50 µM (inactive), the GI50 [50] was > 50 µM (inactive) and the GI50 [51] was > 50 µM (inactive). The GI50 [52] was > 50 µM (inactive).
